# Laboratory results from EP4799701A2, “PYRIMID-2-YL-PYRAZOLE COMPOUNDS AS IRAK INHIBITORS” (Rigel Pharmaceuticals, Inc., priority 2022, dated 2023).
# Several values for one entry are separate records, joined by “and”; a condition that tells them apart may be missing. Equal values may be shown once. Where a name gives a salt, the structure may show the parent alone.
# Key:
# TLR4-induced IL-23 = assay: LPS induced IL23p19 in THP-1 cells (IFNγ primed), IL-23p19 sandwich ELISA; assay type: cell-based, human; settings: THP-1 cells primed with IFNγ, 1 µg/mL LPS, 18 hours; read-out: IL23-p19 ELISA, THP1-IFNy, LPS, 10pt EC50
# Source text: LPS induced IL23p19 in THP-1 cells (with IFNy primed) Assay
# THP-1 Cells (ATCC, Cat# TIB-202), Dimethyl Sulfoxide (DMSO) (Sigma-Aldrich, Cat# D2650), RPMI 1640 (Cellgro, Cat# 10-040-CM), Fetal Bovine Serum (Sigma, Cat# F4135), Albumin From Bovine Serum (BSA) (Sigma-Aldrich, Cat#A7906), LPS (Serotype K-235, Sigma, Product Number L 2143), IFNγ (Peprotech, Cat# 300-02), Capture antibody: Human IL-23p19 ELISA (e-Bioscience, Cat. # 14-7238-85), Detection antibody: Primary Mouse Biotinylated anti-human IL-12(p40/p70) (e-Bioscience, Cat. # 13-7129-85), Secondary HRP-conjugated Streptavidin (R&D Systems, Cat#DY998), 1x PBST Washing Buffer (PBS-Tween tablet) (VWR International, Cat#80058-558), ELISA Blocking Buffer (PBS with 1% BSA), ELISA Dilution Buffer (PBS with 1% BSA), 384 Well Flat-Bottom, MaxiSorp Black Immuno Plates (Thermo Scientific, Cat# 12-565-346), 384 Well Flat-Bottom, White Tissue Culture Plates (Thermo Scientific, Cat# 12-565-343), Super Signal ELISA Pico Chemiluminescent Substrate (Thermo Scientific, Cat#37070), Cell Titer Glo reagent (Promega, Cat#G7573), Positive control, IKK2VI inhibitor (Calbiochem, Cat#401483), AquaMax 4000 plate washer (Molecular Devices), Luminometer, Wallac Victor2 1420 Multilabel Counter.
# On day 1, 50K/well THP-1 cells were seeded and primed with IFNγ (50ng/mL) in 384-well plates for about 18 hours in RPMI media with 10%FBS. On day 2, the compound was serially diluted in DMSO from 5 mM in 3-fold dilutions, and then diluted 1:125 in RPMI media with 10%FBS. […] IL-23p19 protein in 70 µL/well of supernatant was measured by sandwich ELISA, and 25 µl/well Cell Titer Glo reagent was added to the remaining cells to measure compound toxicity.
# Maxisorp immuno ELISA plates were pre-coated with 25 µL/well of anti-IL-23p19 capture antibody (2.5ug/mL) in PBS overnight at room temperature. […] The plates were read with a luminometer, and the chemiluminescence values were entered into Athena (Rigel) for curve fitting, EC50 calculation, and database storage. […]
# [1] = Rat brain homogenate binding, equilibrium dialysis (RED); assay type: in vitro ADME; settings: two runs; brain homogenate 1 brain /3 buffer, drug 5 µM; 5 µM
# Procedure: Brain and plasma drug binding were performed by equilibrium dialysis using the Rapid Equilibrium Dialysis (RED) device. Briefly, 300 µL of plasma or brain homogenate (1 brain /3 buffer) containing drug (5 µM) was equilibrated (4-18 h) against 500 µL of buffered saline. After incubation, the concentration of drug in plasma/brain homogenate and buffer was determined by LC-MS/MS.
# Two runs of rat brain homogenate binding with I-1 compared to Comparison-1. I-1 is approximately 10-fold more free in rat brain than Comparison-1.
Structure (SMILES),EC50 (TLR4-induced IL-23),rat brain homogenate binding (free drug) [1]
"CCO[C@H]1CC[C@H](n2cc(NC(=O)c3csc(-c4cn[nH]c4)n3)c(-c3ncccn3)n2)CC1 [Compound I-4, N-(1-((1r,4r)-4-ethoxycyclohexyl)-3-(pyrimidin-2-yl)-1H-pyrazol-4-yl)-2-(1H-pyrazol-4-yl)thiazole-4-carboxamide tartaric acid salt]",2.5 nM,
"CCO[C@H]1CC[C@H](n2cc(NC(=O)c3csc(-c4cnn(COP(=O)(O)O)c4)n3)c(-c3ncccn3)n2)CC1 [Compound I-3, sodium (4-(4-((1-((1r,4r)-4-ethoxycyclohexyl)-3-(pyrimidin-2-yl)-1H-pyrazol-4-yl)carbamoyl)thiazol-2-yl)-1H-pyrazol-1-yl)methyl phosphate]",54.4 nM,
"CCO[C@H]1CC[C@H](n2cc(NC(=O)c3csc(-c4cn[nH]c4)n3)c(-c3nc(F)ccc3F)n2)CC1 [Comparison-1, reference compound]",,0.102% and 0.114%
